Numbers after ± are expanded uncertainties.
Details: Liquid, Pulse-echo method

c1ccccc1 [benzene]
Details	speed of sound [m/s]
283.2 K, 102.1 kPa	1372 ± 0.83
283.2 K, 5280.1 kPa	1396 ± 0.84
283.2 K, 10234 kPa	1418.2 ± 0.85
283.2 K, 15332 kPa	1439.9 ± 0.86
283.2 K, 20204 kPa	1460.2 ± 0.87
283.2 K, 24857 kPa	1479 ± 0.88
283.21 K, 29815 kPa	1498.1 ± 0.89
298.2 K, 84.2 kPa	1299.7 ± 0.79
298.2 K, 5421.7 kPa	1327 ± 0.81
298.2 K, 10069 kPa	1349.5 ± 0.82
298.2 K, 14866 kPa	1371 ± 0.83
298.2 K, 20104 kPa	1394.3 ± 0.84
298.2 K, 25018 kPa	1415.8 ± 0.85
298.2 K, 30106 kPa	1436.9 ± 0.86
313.2 K, 61.2 kPa	1230.4 ± 0.76
313.2 K, 5536.5 kPa	1259.8 ± 0.77
313.2 K, 10140 kPa	1283.5 ± 0.78
313.2 K, 15332 kPa	1309 ± 0.8
313.2 K, 20194 kPa	1332.2 ± 0.81
313.2 K, 25204 kPa	1354.8 ± 0.82
313.2 K, 29980 kPa	1375.7 ± 0.83
333.21 K, 153.7 kPa	1139.7 ± 0.72
333.21 K, 5378.8 kPa	1171.4 ± 0.73
333.21 K, 10149 kPa	1198.3 ± 0.74
333.21 K, 15038 kPa	1225 ± 0.76
333.21 K, 19601 kPa	1248.5 ± 0.77
333.21 K, 24756 kPa	1274 ± 0.78
333.21 K, 30146 kPa	1299.2 ± 0.79
353.2 K, 15092 kPa	1146.6 ± 0.72
353.2 K, 19918 kPa	1173.2 ± 0.73
353.21 K, 172.3 kPa	1052.2 ± 0.68
353.21 K, 5094.9 kPa	1084.9 ± 0.69
353.21 K, 10007 kPa	1116.2 ± 0.7
353.21 K, 24680 kPa	1198.7 ± 0.74
353.21 K, 30063 kPa	1226 ± 0.76

CCO [ethanol]
Details	speed of sound [m/s]
253.22 K, 104.2 kPa	1304.8 ± 0.7
253.22 K, 130.2 kPa	1305.1 ± 0.7
253.22 K, 5018.8 kPa	1330.4 ± 0.71
253.22 K, 5283.4 kPa	1331.5 ± 0.71
253.22 K, 10112 kPa	1355.4 ± 0.72
253.22 K, 10246 kPa	1355.8 ± 0.72
253.22 K, 15106 kPa	1379.1 ± 0.73
253.22 K, 15229 kPa	1379.4 ± 0.73
253.22 K, 19991 kPa	1401.4 ± 0.74
253.22 K, 20403 kPa	1402.9 ± 0.74
253.22 K, 24921 kPa	1422.9 ± 0.75
253.22 K, 25022 kPa	1423.6 ± 0.75
253.22 K, 30114 kPa	1444.8 ± 0.76
253.23 K, 30052 kPa	1444.5 ± 0.76
273.2 K, 99.9 kPa	1230.8 ± 0.67
273.2 K, 5193.3 kPa	1259.3 ± 0.69
273.2 K, 10100 kPa	1285.4 ± 0.7
273.2 K, 15284 kPa	1311.7 ± 0.7
273.2 K, 20253 kPa	1336 ± 0.72
273.2 K, 25058 kPa	1358.8 ± 0.72
273.2 K, 25221 kPa	1359.3 ± 0.72
273.2 K, 30203 kPa	1381.6 ± 0.73
273.21 K, 128.6 kPa	1231.1 ± 0.67
273.21 K, 5026.6 kPa	1258.5 ± 0.68
273.21 K, 10148 kPa	1285.8 ± 0.7
273.21 K, 15029 kPa	1310.8 ± 0.7
273.21 K, 20070 kPa	1335.2 ± 0.71
273.21 K, 30338 kPa	1382.2 ± 0.73
293.2 K, 103.7 kPa	1160 ± 0.63
293.2 K, 5339.4 kPa	1192 ± 0.65
293.2 K, 10368 kPa	1220.8 ± 0.66
293.2 K, 15197 kPa	1247.2 ± 0.68
293.2 K, 20222 kPa	1273.4 ± 0.69
293.2 K, 25256 kPa	1298.5 ± 0.7
293.2 K, 30069 kPa	1321.4 ± 0.7
293.21 K, 140 kPa	1160.4 ± 0.63
293.21 K, 5169 kPa	1191 ± 0.65
293.21 K, 9977.3 kPa	1218.7 ± 0.66
293.21 K, 15052 kPa	1246.6 ± 0.67
293.21 K, 20101 kPa	1272.9 ± 0.68
293.21 K, 25034 kPa	1297.5 ± 0.69
293.21 K, 30268 kPa	1322.5 ± 0.71
313.21 K, 103.8 kPa	1091.9 ± 0.61
313.21 K, 121.8 kPa	1092.3 ± 0.61
313.21 K, 5023.3 kPa	1124.7 ± 0.62
313.21 K, 5318.6 kPa	1126.5 ± 0.62
313.21 K, 10011 kPa	1155.8 ± 0.63
313.21 K, 10351 kPa	1157.8 ± 0.64
313.21 K, 14993 kPa	1185.1 ± 0.64
313.21 K, 15238 kPa	1186.6 ± 0.65
313.21 K, 20052 kPa	1213.5 ± 0.66
313.21 K, 20317 kPa	1214.8 ± 0.66
313.21 K, 25163 kPa	1240.5 ± 0.67
313.21 K, 25383 kPa	1241.6 ± 0.67
313.21 K, 30116 kPa	1265.6 ± 0.68
313.21 K, 30384 kPa	1266.8 ± 0.68
333.21 K, 104.1 kPa	1024.9 ± 0.59
333.21 K, 137.3 kPa	1025.2 ± 0.59
333.21 K, 5087.6 kPa	1061.2 ± 0.6
333.21 K, 5212.7 kPa	1062.1 ± 0.6
333.21 K, 10090 kPa	1095 ± 0.61
333.21 K, 10228 kPa	1095.9 ± 0.61
333.21 K, 15025 kPa	1126.4 ± 0.62
333.21 K, 15294 kPa	1127.9 ± 0.62
333.21 K, 19954 kPa	1155.9 ± 0.63
333.21 K, 20181 kPa	1157.1 ± 0.64
333.21 K, 24959 kPa	1184.2 ± 0.64
333.21 K, 25377 kPa	1186.4 ± 0.65
333.21 K, 30028 kPa	1211.3 ± 0.66
333.21 K, 30214 kPa	1212.3 ± 0.66
353.2 K, 103.5 kPa	957.73 ± 0.55
353.21 K, 132.1 kPa	957.59 ± 0.55
353.21 K, 5006 kPa	996.76 ± 0.57
353.21 K, 5137.5 kPa	997.75 ± 0.57
353.21 K, 10089 kPa	1034.4 ± 0.58
353.21 K, 10319 kPa	1035.9 ± 0.58
353.21 K, 15035 kPa	1068.3 ± 0.6
353.21 K, 15211 kPa	1069.4 ± 0.6
353.21 K, 20108 kPa	1100.9 ± 0.61
353.21 K, 20273 kPa	1101.7 ± 0.61
353.21 K, 25007 kPa	1130.5 ± 0.62
353.21 K, 25250 kPa	1131.8 ± 0.62
353.21 K, 30102 kPa	1159.5 ± 0.63
353.21 K, 30289 kPa	1160.5 ± 0.63
